Assays:
[1] = test system: NSAID-induced ulceration; details: cited from earlier work
[2] = test system: cervical erosion; experiment: Clinical test of topical intravaginal sucralfate gel for cervical erosion (colposcopic examination, signs and symptoms); assay type: in vivo, women; details: after six weeks of treatment (so in the source); both formulations together
Description: Based on the observed colposcopic picture of the situation and on the seriousness of the possible accompanying inflammation state the patients under test have been classified according to a conventional classification of the cervical pathology, according to the following grade scheme.
Grade I: simple cervicitis; presence of mosaic-shaped lesions and ectopia; reduced leuconrhea and absence of dyspareunia (abnormal pain during sexual intercourse);
Grade II: cervicitis with extended erosion of the portio (30% of the surface); presence of altered epithelium; occasional blood discharge and occasional dyspareunia;
Grade III: cervicitis with extended erosion of the portio (50% of the surface); presence of ectopia; frequent blood discharge; leucorrhea and dyspareunia.
The 18 women, after final diagnosis, were divided into two test groups of nine patients each, in order to evaluate the effectiveness of the treatment according to the invention in two different formulations. The first formulation, continuing sucralfate at a concentration of 25% by weight as well as polycarbophil as a mucoadhesive/bioadhesive ingredient, corresponds to the preparation referred to above as Formulation 2, while the second formulation under test containing sucralfate at a concentration of 12.5% by weight as well as polycarbophil, corresponds to the Formulation 3. […]

[3] = test system: duodenal ulcer; details: oral dose of 1 g four times daily, for 4-8 weeks; cited from earlier work

## β-D-fructofuranosyl-α-D-glucopyranoside octakis(hydrogen sulfate) aluminium complex [sucralfate]
[1]; duodenal localizations
  Effectiveness in NSAID-induced ulceration, duodenal localizations: effective
[1]; when gastric lesions are present
  Effect in NSAID-induced ulceration, gastric lesions: only a symptomatic and non-reparative effect
[2]
  Patients considered on complete recovery: 16 patients out of 18
[3]
  Clinical effectiveness (cases): 75 % of cases

From patent US20040192640A1, “Use of sucralfate for the treatment of cervical erosion” (priority 2004, published 2004)
